The term IC50 denotes the concentration at which inhibition is half-maximal. In general, AC50 refers to the concentration giving half of the maximal activity seen.

Among the data in patent US9163003B2, “4-piperidinyl compounds for use as tankyrase inhibitors” (NOVARTIS AG, priority 2011, dated 2015) are IC50 and AC50 values, retold here.

Where two headings read alike, the source gives them in different places. Some results are limits rather than exact numbers.

One assay deals with Human PARP1 (Homo sapiens (Human), UniProt P09874). In words: PARP1 autoparsylation biochemical assay, LC/MS detection of nicotinamide. As to conditions: read-out: PARP1 IC50, 20 nM enzyme, 250 μM NAD+, 60 min room temperature.
The subject of assay [1] is Non-small lung cancer ABC-1 cells. Nature of the assay: Cellular proliferation assay, ABC-1 cells (CellTiter-Glo). It is filed as cell-based. The note with it: 3 days of compound treatment. How it is done:
Non-small lung cancer ABC-1 cells were plated at 5000 cells per well in 96-well plates and treated with 8 serial compound dilutions starting from 10 μM as the highest concentration. Viable cells were measured after 3 days of compound treatment using the CellTiter-Glo assay (Promega, G7570). Assay was performed following the manufacture protocol.
On the technique in general: ATP-based viability assays read luminescence as a measure of living cells.

A further assay relates to Axin2 protein. In words: Cellular ELISA assay for stabilizing the Axin2 protein in SW480 cells. It is filed as cell-based. The note with it: 24 hrs treatment, read-out: Axin AC50. How it is done:
Compound activity in stabilizing the Axin2 protein was measured by Sandwich Enzyme-Linked Immuosorbent (ELISA) assay in the colorectal cell line SW480. 30,000 SW480 cells were seeded per well in 96-well plate and incubated overnight prior to compound treatment. Cells were then treated with compounds in 6-point dilution starting at 10 μM for 24 hrs. Cells were then washed with 100 μL of cold Phosphate Buffer Saline (PBS), and lysed in 125 μl of cold 1× lysis buffer (Cell Signaling Technology, 9803) supplemented with Protease inhibitor (Roche, 11836170) and Phosphatase inhibitors (Sigma, P2850, P5726). For the ELISA assay, anti Axin-2 capture antibody (Strategic Diagnostics) antibody was diluted to a concentration of 1 μg/ml (1:1000) in Carbonate Coating buffer, pH 9.2 (Sigma, C3041-50CAP). 100μ of the diluted anti Axin-2 capture antibody per well was then used to coat the 96-well ELISA plate (Thermo Electron Corp., MicroLite 1 flat bottom plate #7571) overnight at 4° C. Plates were then washed three times with 300 μl/well of wash solution, PBST20 (PBS+0.05% Tween), and blocked with 300 μl/well 1% BSA/PBS (BSA, Millipore Probumin #82-045-1) for 1.5 hours at room temperature while shaking gently. After blocking, plates were then washed three times with 300 μl/well of wash solution. 100 μL of prepared SW480 cell lysate was then added to each well and incubated at room temperature for 2 hours while shaking gently. After washing, 100 μL of Biotinylated anti-Axin2 antibody (CST, 2151) was added to each well and incubated room temperature for 2 hours. 100 μL of Streptavidin-HRP (R&D systems, DY998) diluted 1:200 in 1% BSA/PBS was then added in each well and incubate for 30 mins at R/T in the dark. Signal was detected by Chemiluminescence (Pierce SuperSignal ELISA Femto #3704), and measured on PerkinElmer Wallac 1420 plate reader.

Assay [2] addresses human tankyrase 1 PARP catalytic domain, TNKS1P (GST-tagged) (Homo sapiens (Human), UniProt O95271). In words: TNKS1 autoparsylation (AP) biochemical assay, LC/MS detection of nicotinamide. As to conditions: 20 nM enzyme, 250 μM NAD+, 60 min room temperature. The method, then: The human tankyrase 1 PARP catalytic domain, TNKS1P, was cloned into a pDONR221 vector using the Invitrogen Gateway Technology. This entry clone was then subcloned into the destination vector pDEST20 to obtain the N-terminal Glutathione S-transferase (GST)-tagged fusion protein.
The autoparsylation activity of the TNKS 1/2 or PARP1/2 enzymes was measured by the liquid chromatography-mass spectrometry (LC/MS) detection of nicotinamide as readout. Compound activity in inhibiting the TNKS and PARP autoparsylation was evaluated by IC50 measurements.

The target of another assay is PARP2 (Mus musculus (Mouse), UniProt O88554). Nature of the assay: PARP2 autoparsylation biochemical assay, LC/MS detection of nicotinamide. As to conditions: read-out: PARP2 Ic50, 20 nM enzyme, 250 μM NAD+, 60 min room temperature.
The test system of assay [3] is Wnt ligand-induced signaling. In words: Wnt-responsive Super-TOpFlash (STF) luciferase reporter gene assay in HEK293 cells. It is filed as cell-based. As to conditions: Homo sapiens, Wnt3A condition medium induced. The method, then:
Compound activity in inhibiting Wnt ligand-induced signaling was measured using a Wnt-responsive Super-TOpFlash (STF) luciferase reporter gene assay in HEK293 cells. On day 1 of the assay, cells were plated at a density of 8000 cells per well of 384-well plate in 25 μl medium containing 5% fetal bovine serum (FBS). On the second day, […] condition medium (CM) produced from mouse L cells was added to the cells to induce Wnt signaling, followed by addition of 5 μL of compounds each well in 10-point serial dilution. On the third day, the luciferase activity was measured by the Bright-Glo™ Luciferase Assay System following manufacture's protocol (Promega, E2620). The Inhibition was calculated as: (Maximum Wnt-induced signaling−Sample)/(Maximum Wnt-induced signaling−Background)*100. “Maximum Wnt-induced signaling” is the STF signal level induced by 20% Wnt3A CM without compound; and “Background” is the STF signal level without the addition of Wnt3A CM or compound.
On the technique in general: Reporter assays use an easily measured gene product as a stand-in for the process of interest.

Assay [4] has as its target tankyrase 2 protein PARP domain, TNKS2P (GST-tagged) (Homo sapiens (Human), UniProt Q9H2K2). Nature of the assay: TNKS2 autoparsylation (AP) biochemical assay, LC/MS detection of nicotinamide. As to conditions: 20 nM enzyme, 250 μM NAD+, 60 min room temperature.

human tankyrase 1 PARP catalytic domain, TNKS1P (GST-tagged), sequence (O95271 1112-1317): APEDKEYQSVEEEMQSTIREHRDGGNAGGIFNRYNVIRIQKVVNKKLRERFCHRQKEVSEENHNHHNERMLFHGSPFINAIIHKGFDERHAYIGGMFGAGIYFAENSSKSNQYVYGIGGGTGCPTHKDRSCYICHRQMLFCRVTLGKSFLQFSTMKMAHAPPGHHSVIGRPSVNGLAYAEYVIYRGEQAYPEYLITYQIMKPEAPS
Human PARP1, sequence (P09874 whole entry): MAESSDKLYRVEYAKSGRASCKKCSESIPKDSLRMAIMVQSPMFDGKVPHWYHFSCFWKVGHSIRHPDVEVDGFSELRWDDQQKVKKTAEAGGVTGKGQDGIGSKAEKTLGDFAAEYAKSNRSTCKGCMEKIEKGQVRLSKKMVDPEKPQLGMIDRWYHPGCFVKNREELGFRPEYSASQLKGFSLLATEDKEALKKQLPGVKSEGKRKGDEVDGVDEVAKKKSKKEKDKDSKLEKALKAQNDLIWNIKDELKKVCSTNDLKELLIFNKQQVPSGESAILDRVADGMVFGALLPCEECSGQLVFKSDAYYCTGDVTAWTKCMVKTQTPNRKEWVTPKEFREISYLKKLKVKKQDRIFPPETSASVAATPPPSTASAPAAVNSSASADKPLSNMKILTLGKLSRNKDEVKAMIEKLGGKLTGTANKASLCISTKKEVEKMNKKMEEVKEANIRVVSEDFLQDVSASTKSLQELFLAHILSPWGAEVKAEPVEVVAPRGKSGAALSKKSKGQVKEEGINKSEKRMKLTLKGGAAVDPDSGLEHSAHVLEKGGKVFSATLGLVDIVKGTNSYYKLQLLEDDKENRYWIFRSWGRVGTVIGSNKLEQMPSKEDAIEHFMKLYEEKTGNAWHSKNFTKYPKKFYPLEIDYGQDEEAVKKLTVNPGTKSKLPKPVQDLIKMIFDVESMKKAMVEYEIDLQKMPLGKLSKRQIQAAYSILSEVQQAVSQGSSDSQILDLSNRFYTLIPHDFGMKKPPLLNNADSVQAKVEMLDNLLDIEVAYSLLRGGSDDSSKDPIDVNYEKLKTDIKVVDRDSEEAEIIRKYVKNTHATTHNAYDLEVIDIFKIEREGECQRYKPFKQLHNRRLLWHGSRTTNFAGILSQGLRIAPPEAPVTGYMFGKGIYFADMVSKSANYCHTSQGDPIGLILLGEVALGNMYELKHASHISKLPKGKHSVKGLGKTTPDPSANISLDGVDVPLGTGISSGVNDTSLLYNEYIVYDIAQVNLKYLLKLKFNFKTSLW
tankyrase 2 protein PARP domain, TNKS2P (GST-tagged), sequence (Q9H2K2 959-1164): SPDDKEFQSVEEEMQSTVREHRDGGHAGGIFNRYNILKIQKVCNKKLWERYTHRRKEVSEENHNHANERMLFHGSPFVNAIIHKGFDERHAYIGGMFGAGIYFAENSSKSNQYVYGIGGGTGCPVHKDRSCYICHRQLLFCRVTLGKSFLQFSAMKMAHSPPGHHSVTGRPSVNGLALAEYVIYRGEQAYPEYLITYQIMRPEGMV
PARP2, sequence (O88554 whole entry): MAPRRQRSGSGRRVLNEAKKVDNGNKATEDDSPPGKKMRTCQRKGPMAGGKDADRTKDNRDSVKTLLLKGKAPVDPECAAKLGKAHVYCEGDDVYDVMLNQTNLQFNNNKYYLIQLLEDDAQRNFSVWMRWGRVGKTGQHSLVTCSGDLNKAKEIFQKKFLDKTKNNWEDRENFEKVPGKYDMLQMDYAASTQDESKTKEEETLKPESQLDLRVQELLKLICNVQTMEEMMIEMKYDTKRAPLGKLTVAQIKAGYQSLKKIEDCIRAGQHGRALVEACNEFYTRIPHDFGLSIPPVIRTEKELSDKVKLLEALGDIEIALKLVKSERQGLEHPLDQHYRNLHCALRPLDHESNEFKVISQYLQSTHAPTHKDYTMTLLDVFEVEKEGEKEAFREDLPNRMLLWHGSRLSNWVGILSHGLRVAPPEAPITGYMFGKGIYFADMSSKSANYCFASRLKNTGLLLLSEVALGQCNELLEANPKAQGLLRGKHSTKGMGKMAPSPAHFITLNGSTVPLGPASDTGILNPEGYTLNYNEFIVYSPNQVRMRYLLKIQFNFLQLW

Take `COc1ccc(C(=O)C2CCN([C@@H]3CCN(CC(=O)Nc4nnc5n4CCS5)C3=O)CC2)cc1` (single isomer, unassigned) [Example 34]: the IC50 was above 19 µM on Human PARP1, 49 nM in assay [1], 38 ± 1 nM in assay [2] and 6.3 ± 0.7 µM at PARP2. For the same molecule, the AC50 with Axin2 protein worked out at 78 ± 6 nM.

For the molecule `COc1ccc(C(=O)C2CCN(C3CCN(Cc4nc5c(c(=O)[nH]4)COCC5)C3=O)CC2)cc1` (stereo not shown) [Example 2, 2-{3-[4-(4-Methoxy-benzoyl)-piperidin-1-yl]-2-oxo-pyrrolidin-1-ylmethyl}-3,5,7,8-tetrahydro-pyrano[4,3-d]pyrimidin-4-one], the IC50 came out at 1.3 ± 0.8 nM in assay [3]; 9.3 ± 1.8 µM at Human PARP1; 30 ± 5 nM in assay [1] (Homo sapiens, 72 h); 15 ± 4 nM in assay [4]; 33 ± 7 nM in assay [2]; 5.4 ± 0.4 µM at PARP2. Moreover, in the assay with Axin2 protein (Homo sapiens), the AC50 came out at 31.3 ± 3.6 nM.

Regarding `COc1ccc(C(=O)C2CCN([C@H]3CCN(Cc4nc5c(c(=O)[nH]4)COCC5)C3=O)CC2)cc1` [Example 3, 2-{(S)-3-[4-(4-Methoxy-benzoyl)-piperidin-1-yl]-2-oxo-pyrrolidin-1-ylmethyl}-3,5,7,8-tetrahydro-pyrano[4,3-d]pyrimidin-4-one], the IC50 in assay [3] worked out at 1.1 ± 0.4 nM; at Human PARP1, 21 ± 8.7 µM; in assay [1] (Homo sapiens, 72 h), 12 ± 3 nM; in assay [4], 9.5 ± 0.7 nM; in assay [2], 12.8 ± 2.6 nM; at PARP2, 4.8 ± 0.6 µM. Moreover, the concentration at half-maximal activity (AC50) with Axin2 protein (Homo sapiens) amounted to 6.3 ± 1.3 nM.

Consider `COc1ccc(C(=O)C2CCN(C3CCN(Cc4nc5c(cnn5C)c(=O)[nH]4)C3=O)CC2)cc1` (stereo not shown) [Example 6, 6-{3-[4-(4-Methoxy-benzoyl)-piperidin-1-yl]-2-oxo-pyrrolidin-1-ylmethyl}-1-methyl-1,3a,5,7a-tetrahydro-pyrazolo[3,4-d]pyrimidin-4-one], for which the IC50 is 5.9 ± 1.5 nM in assay [3]; above 19 µM on Human PARP1; 43 nM in assay [1] (Homo sapiens, 72 h); 25 ± 4 nM in assay [4]; 22 ± 4 nM in assay [2]; above 19 µM on PARP2. Besides, in the assay on Axin2 protein (Homo sapiens), the AC50 was determined as 23 ± 3 nM.

For the molecule `O=C(c1ccc(Cl)cc1)C1CCN(C2CCN(Cc3nc4c(c(=O)[nH]3)COCC4)C2=O)CC1` (stereo not shown) [Example 9, 2-{3-[4-(4-Chloro-benzoyl)-piperidin-1-yl]-2-oxo-pyrrolidin-1-ylmethyl}-3,5,7,8-tetrahydro-pyrano[4,3-d]pyrimidin-4-one], the IC50 in assay [3] was determined as 3 ± 3 nM; at Human PARP1, 16.6 ± 4.2 µM; in assay [1] (Homo sapiens, 72 h) it was 60 nM; in assay [4], 23 ± 1 nM; in assay [2], 30 ± 2 nM; at PARP2 it was 4.62 ± 0.95 µM. Also, in the assay on Axin2 protein (Homo sapiens), the AC50 was 52 ± 4 nM.

For the molecule `O=C(c1ccc(F)cc1)C1CCN(C2CCN(Cc3nc4c(c(=O)[nH]3)COCC4)C2=O)CC1` (stereo not shown) [Example 10, 2-{3-[4-(4-Fluoro-benzoyl)-piperidin-1-yl]-2-oxo-pyrrolidin-1-ylmethyl}-3,5,7,8-tetrahydro-pyrano[4,3-d]pyrimidin-4-one], the IC50 in assay [3] was 10 ± 1 nM; on Human PARP1 it was 23.6 ± 2.7 µM; in assay [1] (Homo sapiens, 72 h), 291 nM; in assay [4] it was 6 ± 1 nM; in assay [2] it was 27 ± 1 nM; at PARP2, 9.2 ± 2.2 µM. Also, the AC50 in the assay on Axin2 protein (Homo sapiens) is 257 ± 67 nM.

With `O=C(c1ccc(F)cc1)C1CCN([C@H]2CCN(Cc3nc4c(c(=O)[nH]3)COCC4)C2=O)CC1` [Example 11, 2-{(S)-3-[4-(4-Fluoro-benzoyl)-piperidin-1-yl]-2-oxo-pyrrolidin-1-ylmethyl}-3,5,7,8-tetrahydro-pyrano[4,3-d]pyrimidin-4-one], the IC50 in assay [3] was 5 ± 5 nM; at Human PARP1, 37.4 ± 0.3 µM; in assay [1] (Homo sapiens, 72 h) it was 301 nM; in assay [4], 17 ± 2 nM; in assay [2], 37 ± 5 nM; on PARP2, 10.2 ± 4.2 µM. Besides, the AC50 in the assay on Axin2 protein (Homo sapiens) was found to be 132 ± 22 nM.

On to `COc1ccc(C(=O)C2CCN([C@H]3CCN(Cc4nc5c(c(=O)[nH]4)COCC5)C3=O)CC2)cc1C` [Example 13, 2-{(S)-3-[4-(4-Methoxy-3-methyl-benzoyl)-piperidin-1-yl]-2-oxo-pyrrolidin-1-ylmethyl}-3,5,7,8-tetrahydro-pyrano[4,3-d]pyrimidin-4-one], for which the IC50 in assay [3] came out at 1.2 ± 1 nM; at Human PARP1, 24 ± 3 µM; in assay [1] (Homo sapiens, 72 h), 3 nM; in assay [4], 3 ± 1 nM; in assay [2], 6 ± 1 nM; on PARP2 it was 4 ± 1.1 µM. Also, the AC50 in the assay with Axin2 protein (Homo sapiens) came out at 2.1 ± 0.1 nM.

Take `COc1ccc(C(=O)C2CCN(C3CCN(Cc4nc(C)cc(=O)[nH]4)C3=O)CC2)cc1` (stereo not shown) [Example 23, 2-{3-[4-(4-Methoxy-benzoyl)-piperidin-1-yl]-2-oxo-pyrrolidin-1-ylmethyl}-6-methyl-3H-pyrimidin-4-one]: the IC50 in assay [3] turned out to be 56 ± 33 nM; in assay [1] (Homo sapiens, 72 h), 489 nM; in assay [4], 137 ± 22 nM; in assay [2] it was 286 ± 5 nM. The AC50 with Axin2 protein (Homo sapiens) was 227 ± 25 nM.

On to `COc1ccc(C(=O)C2CCN([C@@H]3CCN(Cc4nc5ccccc(=O)c5[nH]4)C3=O)CC2)cc1C` [Example 29, 2-{(R)-3-[4-(4-Methoxy-3-methyl-benzoyl)-piperidin-1-yl]-2-oxo-pyrrolidin-1-ylmethyl}-3H-cycloheptaimidazol-4-one], for which the IC50 in assay [3] came out at 14 ± 4 nM; in assay [1] (Homo sapiens, 72 h) it was 10 nM; in assay [4], 112 nM; in assay [2], 278 ± 50 nM. The AC50 in the assay with Axin2 protein (Homo sapiens) amounted to 9 ± 1 nM.

For the molecule `COc1ccc(C(=O)C2CCN([C@@H]3CCN(Cc4nc5ccccc(=O)c5[nH]4)C3=O)CC2)cc1` [Example 31, 2-{(R)-3-[4-(4-Methoxy-benzoyl)-piperidin-1-yl]-2-oxo-pyrrolidin-1-ylmethyl}-3H-cycloheptaimidazol-4-one], the IC50 came to 65 ± 14 nM in assay [3]; 85 nM in assay [1] (Homo sapiens, 72 h); 1080 ± 10 nM in assay [2]; 10.1 ± 2.6 µM at PARP2. The AC50 with Axin2 protein (Homo sapiens) worked out at 89 ± 2 nM.

For the molecule `COc1ccc(C(=O)C2CCN(C3CCN(CC(=O)Nc4nnc5n4CCS5)C3=O)CC2)cc1` (stereo not shown) [Example 32, N-(5,6-dihydrothiazolo[2,3-c][1,2,4]triazol-3-yl)-2-(3-(4-(4-methoxybenzoyl)piperidin-1-yl)-2-oxopyrrolidin-1-yl)acetamide], the IC50 on Human PARP1 was above 19 µM; in assay [1] (Homo sapiens, 72 h), 76 nM; in assay [2], 43 ± 1 nM; on PARP2, 5.09 ± 0.12 µM. In addition, the AC50 in the assay with Axin2 protein (Homo sapiens) is 131 ± 8 nM.

Turning to `COc1ccc(C(=O)C2CCN(C3CCN(CC(=O)Nc4nnc5ccccn45)C3=O)CC2)cc1` (stereo not shown) [Example 35, N-([1,2,4]triazolo[4,3-a]pyridin-3-yl)-2-(3-(4-(4-methoxybenzoyl)piperidin-1-yl)-2-oxopyrrolidin-1-yl)acetamide], the IC50 in assay [3] is 940 ± 70 nM; in assay [1] (Homo sapiens, 72 h), 2630 nM; in assay [4], 636 ± 36 nM; in assay [2], 2470 ± 30 nM. In the assay with Axin2 protein (Homo sapiens), the AC50 came to 1890 ± 160 nM.
